This test relates to α7 integrin promoter. Kind of test: muscle cell-based assay: α7βgal+/− myoblasts/myotubes, LacZ reporter, β-galactosidase cleavage of FDG. Also noted: species or system mouse; Results in α7+/− β-galactosidase assay: scale not given here. The following applies: Myoblasts. An outline of the steps:
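Fluorescein generated from FDG by β-galactosidase reports α7 integrin promoter activity in differentiated myoblasts from α7+/− LacZ knock-in pups. Screening hits then went to dose-response, western blotting and a myostatin counterscreen.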

Molecules are shown by their SMILES.

Consider `CC1(C)Cc2c(cnn2-c2cccc(F)c2)C(NC(=O)CCc2cnccn2)C1` (stereo not drawn) [drawing 534], for which the “Results in α7+/− β-galactosidase assay” value runs as follows: (0.5 uM) 0.2096; (1 uM) 0.1101; (5 uM) −0.01619; (10 uM) −0.03841; (20 uM) 0.02411; (40 uM) −0.09429.
Consider `O=C1Nc2ccccc2/C1=C/c1cccnc1` [drawing 535], for which the “Results in α7+/− β-galactosidase assay” value (0.5 uM) is given as 0.259; the “Results in α7+/− β-galactosidase assay” value (1 uM) is given as 0.1621; the “Results in α7+/− β-galactosidase assay” value (5 uM) is recorded as −0.1077; the “Results in α7+/− β-galactosidase assay” value (10 uM) is reported as −0.235; the “Results in α7+/− β-galactosidase assay” value (20 uM) is recorded as −0.5331; the “Results in α7+/− β-galactosidase assay” value (40 uM) is −0.7528.
As for `CNC(=O)CSc1nnc(-c2ccc3c(c2)OCO3)n1C` [drawing 536], the “Results in α7+/− β-galactosidase assay” value reads like this: (0.5 uM) 0.1583; (1 uM) 0.04195; (5 uM) 0.03203; (10 uM) 0.03846; (20 uM) −0.04001; (40 uM) −0.01341.
For the compound `Cc1ccccc1NC(=O)NCCCN1CCN(C)CC1` [drawing 537], the “Results in α7+/− β-galactosidase assay” value runs as follows: (0.5 uM) 0.06224; (1 uM) 0.06912; (5 uM) 0.01544; (10 uM) −0.04766; (20 uM) 0.09447; (40 uM) 0.1887.
As for `CC1(C)Cc2c(c(N3CCOCC3)nc3sc(C(=O)Nc4ccccc4)c(N)c23)CO1` [drawing 538], the “Results in α7+/− β-galactosidase assay” value runs as follows: (0.5 uM) 0.2085; (1 uM) 0.2916; (5 uM) −0.3961; (10 uM) −0.7131; (20 uM) −0.4322; (40 uM) −0.3536.
With `COc1ccc(N2CCN(C(=O)c3cc(C)on3)CC2)cc1` [drawing 539], the “Results in α7+/− β-galactosidase assay” value (0.5 uM) is on record as 0.06118; the “Results in α7+/− β-galactosidase assay” value (1 uM) came out at 0.157; the “Results in α7+/− β-galactosidase assay” value (5 uM) is given as 0.07966; the “Results in α7+/− β-galactosidase assay” value (10 uM) was 0.01243; the “Results in α7+/− β-galactosidase assay” value (20 uM) was determined as 0.1011; the “Results in α7+/− β-galactosidase assay” value (40 uM) turned out to be 0.07367.
`CCOn1c(=O)c(-c2ccccc2)[n+]([O-])c2ccccc21` [drawing 540]: the “Results in α7+/− β-galactosidase assay” value runs as follows: (0.5 uM) 0.2811; (1 uM) 0.2862; (5 uM) 0.8432; (10 uM) −0.07816; (20 uM) 0.1113; (40 uM) 0.0836.
`O=S(=O)(N/C(=N/C1CCCCC1)c1ccccc1F)c1ccccc1` [drawing 542]: the “Results in α7+/− β-galactosidase assay” value by setting is: (0.5 uM) 0.02381; (1 uM) 0.1877; (5 uM) 0.03277; (10 uM) 0.0429; (20 uM) 0.04651; (40 uM) 0.01846.
`CCCCNc1nnc(Cc2ccc(Cl)cc2)c(O)n1` [drawing 543]: the “Results in α7+/− β-galactosidase assay” value was 0.1426 (0.5 uM); 0.2067 (1 uM); −0.06804 (5 uM); −0.2224 (10 uM); −0.259 (20 uM); −0.2813 (40 uM).
Take `CC(C)CN(C(=O)c1cccc(Cl)c1)c1c(N)n(Cc2ccccc2)c(=O)[nH]c1=O` [drawing 544]: the “Results in α7+/− β-galactosidase assay” value reads like this: (0.5 uM) 0.1169; (1 uM) 0.2337; (5 uM) 0.01239; (10 uM) −0.05318; (20 uM) −0.1028; (40 uM) −0.2221.
Consider `Cc1nc(O)nc(O)c1S(=O)(=O)Nc1ccc(F)cc1Cl` [drawing 545], for which the “Results in α7+/− β-galactosidase assay” value (0.5 uM) stood at 0.03945; the “Results in α7+/− β-galactosidase assay” value (1 uM) is 0.1557; the “Results in α7+/− β-galactosidase assay” value (5 uM) was found to be 0.0782; the “Results in α7+/− β-galactosidase assay” value (10 uM) is listed as −0.00196; the “Results in α7+/− β-galactosidase assay” value (20 uM) came to 0.02136; the “Results in α7+/− β-galactosidase assay” value (40 uM) is listed as −0.01244.
With `Cc1nnc(-c2ccc(N3CCOCC3)c([N+](=O)[O-])c2)o1` [drawing 546], the “Results in α7+/− β-galactosidase assay” value is listed as −0.06474 (0.5 uM); −0.06237 (1 uM); −0.05162 (5 uM); −0.06761 (10 uM); −0.1275 (20 uM); −0.08865 (40 uM).
Turning to `Cc1cc(C)cc(OCC(=O)N/N=C/c2ccccn2)c1` [drawing 547], the “Results in α7+/− β-galactosidase assay” value is 0.02525 (0.5 uM); 0.04969 (1 uM); 0.0722 (5 uM); −0.00591 (10 uM); 0.8477 (20 uM); −0.1757 (40 uM).
For `O=C1Nc2ccccc2/C1=C/c1c[nH]c(-c2ccccc2)n1` [drawing 548], the “Results in α7+/− β-galactosidase assay” value reads like this: (0.5 uM) 0.05646; (1 uM) 0.09843; (5 uM) 0.2266; (10 uM) 0.1719; (20 uM) 0.06424; (40 uM) 0.08092.
With `O=C(c1ccccc1)N1CCN(S(=O)(=O)c2cccs2)CC1` [drawing 549], the “Results in α7+/− β-galactosidase assay” value reads like this: (0.5 uM) 0.05147; (1 uM) 0.1507; (5 uM) 0.1856; (10 uM) −0.01279; (20 uM) 0.05474; (40 uM) 0.09083.
For `COc1ccccc1C(=O)Nc1ccnn1C1CCN(C(=O)c2ccoc2)CC1` [drawing 551], the “Results in α7+/− β-galactosidase assay” value is on record as −0.09644 (0.5 uM); −0.04841 (1 uM); 0.05814 (5 uM); 0.02292 (10 uM); 0.01412 (20 uM); −0.05323 (40 uM).
With `CCOC(=O)c1nnn(-c2nonc2OC)c1-c1ccccc1` [drawing 552], the “Results in α7+/− β-galactosidase assay” value runs as follows: (0.5 uM) 0.01584; (1 uM) 0.107; (5 uM) 0.07484; (10 uM) −0.08302; (20 uM) 0.003125; (40 uM) −0.1081.
Regarding `CC(C)(C)Nc1nc(-c2ccc3c(c2)CCN3C(=O)C2CC2)cs1` [drawing 553], the “Results in α7+/− β-galactosidase assay” value runs as follows: (0.5 uM) 0.1228; (1 uM) 0.2827; (5 uM) 0.1111; (10 uM) −0.01717; (20 uM) −0.1366; (40 uM) −0.2135.
Regarding `CCN(C(=O)c1ccc(S(=O)(=O)N(C)C)cc1)C(C)C(=O)Nc1ccc(C)cc1` (stereo not drawn) [drawing 556], the “Results in α7+/− β-galactosidase assay” value (0.5 uM) is on record as −0.05004; the “Results in α7+/− β-galactosidase assay” value (1 uM) is given as −0.1349; the “Results in α7+/− β-galactosidase assay” value (5 uM) is reported as −0.02565; the “Results in α7+/− β-galactosidase assay” value (10 uM) is recorded as 0.2444; the “Results in α7+/− β-galactosidase assay” value (20 uM) is reported as −0.07832; the “Results in α7+/− β-galactosidase assay” value (40 uM) is recorded as −0.2867.
`COc1cc(NC(=O)OCc2ccccc2)c2ncccc2c1` [drawing 557]: the “Results in α7+/− β-galactosidase assay” value is reported as 0.0156 (0.5 uM); −0.08284 (1 uM); 0.01997 (5 uM); 0.2347 (10 uM); −0.06526 (20 uM); −0.1686 (40 uM).
Take `Cc1ccc2c(c1)/C(=C/c1ccccc1C)C(=O)N2` [drawing 558]: the “Results in α7+/− β-galactosidase assay” value (0.5 uM) is 0.05088; the “Results in α7+/− β-galactosidase assay” value (1 uM) is reported as −0.09662; the “Results in α7+/− β-galactosidase assay” value (5 uM) is given as −0.07445; the “Results in α7+/− β-galactosidase assay” value (10 uM) is recorded as 0.08015; the “Results in α7+/− β-galactosidase assay” value (20 uM) is on record as −0.3519; the “Results in α7+/− β-galactosidase assay” value (40 uM) is recorded as −0.675.
As to `O=C(NCCc1ccccc1)C1CCC(=O)N1C1CCCC1` (stereo not drawn) [drawing 559], the “Results in α7+/− β-galactosidase assay” value by setting is: (0.5 uM) −0.1018; (1 uM) −0.1461; (5 uM) 0.003015; (10 uM) 0.245; (20 uM) 0.1433; (40 uM) 0.02863.
On to `CCCN(C(=O)c1ccc(S(=O)(=O)N2CCCC2)cc1)C1CCS(=O)(=O)C1` (stereo not drawn) [drawing 560], for which the “Results in α7+/− β-galactosidase assay” value is recorded as −0.1431 (0.5 uM); −0.1722 (1 uM); −0.06143 (5 uM); 0.1978 (10 uM); 0.07259 (20 uM); −0.0646 (40 uM).

Values taken from patent publication US10028992B2, “Methods of treating muscular dystrophy” (BOARD OF REGENTS OF THE NEVADA SYSTEM OF HIGHER EDUCATION …, priority 2012, dated 2018).
